In US11530197B2, “Analogs for the treatment of disease” (Insilico Medicine IP Limited, priority 2021, dated 2022):
Read-outs that look alike come from different tables or passages of the source.

Tests used:
[1] = Metabolic stability in human liver microsomes; assay type: in vitro ADME; settings: LM Clint; 1 μM test compound, 0.5 mg protein/mL microsome, 37° C., up to 60 min;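 further: NADPH-supplemented human liver microsomes sampled at 0, 5, 10, 20, 30 and 60 min, parent compound quantified by LC-MS/MS, intrinsic clearance from first-order decay, no-cofactor incubation as control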
Protocol: Test Compound an Control Working Solution Preparation: Working solution: 5 μL of compound and control stock solution (10 mM in dimethyl sulfoxide (DMSO)) were diluted with 495 µL of acetonitrile (ACN) (intermediate solution concentration: 100 μM, 99% ACN).
Preparation Procedure: The appropriate amount of NADPH powder was weighed and diluted into a 10 mM MgCl2 solution (working solution concentration: 10 unit/mL; final concentration in reaction system: 1 unit/mL).
Preparation Procedure: The appropriate concentrations of microsome working solutions were prepared in 100 mM potassium phosphate buffer.
Stop Solution Preparation: Cold (4° C.) acetonitrile (ACN) containing 200 ng/mL tolbutamide and 200 ng/mL labetalol as internal standards (IS) was used as the stop solution.
Dilute liver microsomes to 0.56 mg/mL in 100 mM phosphate buffer.
Transfer 445 μL microsome working solutions (0.56 mg/mL) into pre-warmed ‘Incubation’ plates T60 and NCF60, Then pre-incubate ‘Incubation’ plates T60 and NCF60 for 10 min at 37° C. with constant shaking. Transfer 54 μL liver microsomes to blank plate, then add 6 μL NAPDH cofactor to blank plate, and then add 180 μL quenching solution to blank plate.
2.5.4 Add 5 μL compound working solution (100 μM) into ‘incubation’ plates (T60 and NCF60) containing microsomes and mix 3 times thoroughly.
For the NCF60 plate, add 50 μL of buffer and mix 3 times thoroughly. Start timing; plate will be incubated at 37° C. for 60 min while shaking.
For the T60 plate, mix 3 times thoroughly, and immediately remove 54 μL mixture for the 0-min time point to ‘Quenching’ plate. Then add 44 μL NAPDH cofactor to incubation plate (T60). Start timing; plate will be incubated at 37° C. for 60 min while shaking.
At 5, 10, 20, 30, and 60 min, add 180 μL quenching solution to ‘Quenching’ plates, mix once, and serially transfer 60 μL sample from T60 plate per time point to ‘Quenching’ plates.
For NCF60: mix once, and transfer 60 μL sample from the NCF60 incubation to ‘Quenching’ plate containing quenching solution at the 60-min time point.
All sampling plates are shaken for 10 min, then centrifuged at 4000 rpm for 20 minutes at 4° C.
Transfer 80 μL supernatant into 240 μL HPLC water, and mix by plate shaker for 10 min.
Each bioanalysis plate was sealed and shaken for 10 minutes prior to LC-MS/MS analysis.
The equation of first order kinetics was used to calculate T½ and Intrinsic clearance (CLint mic) in (L/min/mg).

TNIK(h) = TNIK(h) (Homo sapiens (Human), UniProt Q9UKE5); assay: TNIK Human STE Kinase Enzymatic Radiometric Assay; assay type: biochemical;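 further: remaining kinase activity relative to DMSO control, compound added without preincubation, reaction started with ATP, IC50 from variable-slope sigmoidal dose-response fit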
Protocol: (§1) The reaction is initiated by the addition of the Mg/ATP mix. After incubation for 40 minutes at room temperature, the reaction is stopped by the addition of phosphoric acid to a concentration of 0.5%.
INCUBATION: 40 min at Room temperature
COMPOUND DILUTION SCHEME: All compounds supplied were prepared to a working stock of 50× final assay concentration in 100% DMSO. Where appropriate, more concentrated stocks were diluted manually to 50× using 100% DMSO. Compounds supplied as powders were reconstituted to a 10 mM stock in 100% DMSO before further dilution to 50×. ASSAY PROCEDURE: The required volume of the 50× stock of test compound was added to the assay before a reaction mix containing the enzyme and substrate was added. The reaction was initiated by the addition of ATP at the selected concentration. There was no pre-incubation of the compound with the enzyme/substrate mix prior to ATP addition. […] Results are expressed as kinase activity remaining, as a percentage of the DMSO control. This is calculated using the following formula:
(§2) For IC50 determinations, data are analyzed using XLFit version 5.3 (ID Business Solutions). Sigmoidal dose-response (variable slope) curves are fit based on the mean result for each test concentration using non-linear regression analysis. Where the top and/or bottom of the curve fall >10% out with 100 and 0, respectively, either or both of these limits may be constrained at 100 and 0, provided that the QC criterion on R2 is met.

MAP4K4 (h) = MAP4K4 (h) (Homo sapiens (Human), UniProt O95819); assay: MAP4K4 Human STE Kinase Enzymatic Radiometric Assay; assay type: biochemical; settings: ATP 200 μM; 40 min at room temperature;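 further: kinase activity remaining relative to the DMSO control, IC50 derived from sigmoidal variable-slope curve fits, no preincubation of compound with enzyme before ATP start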
Protocol: as §1
INCUBATION: 40 min at Room temperature
COMPOUND DILUTION SCHEME: All compounds supplied were prepared to a working stock of 50× final assay concentration in 100% DMSO. Where appropriate, more concentrated stocks were diluted manually to 50× using 100% DMSO. Compounds supplied as powders were reconstituted to a 10 mM stock in 100% DMSO before further dilution to 50×.
ASSAY PROCEDURE: The required volume of the 50× stock of test compound was added to the assay before a reaction mix containing the enzyme and substrate was added. The reaction was initiated by the addition of ATP at the selected concentration. There was no pre-incubation of the compound with the enzyme/substrate mix prior to ATP addition.
Results are expressed as kinase activity remaining, as a percentage of the DMSO control. This is calculated using the following formula: Mean of Sample Counts−Mean of Blank Counts/Mean of Control Counts
as §2

[2] = system: Collagen I (COL1A1) in LX-2 cells; assay: Collagen and Alpha-SMA in LX-2 (Western blot after TGF-β stimulation); assay type: cell-based; settings: Homo sapiens, 4 ng/ml TGF-β for 48 hours, Collagen I normalized to GAPDH;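 further: cells serum-starved in 0.4% FBS before treatment, lysates analysed by Western blot, DMSO-only wells as blank and TGF-β alone as maximal induction control, three independent experiments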
Protocol: 3 ml of 0.25% Trypsin-EDTA solution was then added and cells were incubated at 37° C. for 5 min for each T150-flask. 7 ml of culture medium was added to stop trypsinization. The cells were centrifuged at 300×g for 5 min. Supernatant medium was discarded and cells were re-suspended with fresh culture medium. The cells were counted with Cell viability analyzer. 5.0E+05 cells/well were seeded into 6-well plate containing 2.0 mL of culture medium. The cells were cultured overnight at 37° C. The next day, the complete medium was replaced with medium with 0.4% FBS for starvation. […] In parallel, medium containing only DMSO and TGF-β was used as blank control and positive control, respectively. TGF-β induction was used as maximum induction positive control. The culture medium was discarded at the end of induction. Cells were washed once using ice-cold DPBS. RIPA buffer was added to lyse the cells for 20 min. The cells were then scraped off the culture plate, collected in a tube and centrifuged. The supernatant was stored at −80° C. The total amount of protein in the lysate was determined using BCA Protein Assay kit. The cell treatment of fibrosis assay was performed in three independent experiments for each compound.
All the lysate samples were adjusted to the same protein concentration with RIPA buffer after BCA assay. […] The denatured samples were used for electrophoresis. Western blot was performed according to the standard protocols. The same volume of protein was loaded onto 4-12% Bis-Tris gel. Duplicate lysates of samples were loaded onto two gels. The gels were run for 0.5 h at 80 V and 120 V for another 1 h. When the electrophoresis was completed, the gels containing target protein Collagen I (COL1A1) were transferred onto NC membrane using Trans-Blot Electrophoretic Transfer Cell for 90 min at 100 V. The iBlot™ 2 Gel Transfer Device was used to transfer α-SMA and GAPDH at 20 V for 7 min. All the membranes were blocked in TBST buffer with 5% nonfat dry milk in at RT for 1 h and then incubated with primary antibody anti-COL1A1 and anti-α-SMA in TBST buffer containing 5% BSA at 4° C. overnight. For GAPDH detection, the membrane with α-SMA immunoblots were stripped with Restore™ Western Blot Stripping Buffer after detection. And the membranes were re-blocked and then re-probed with primary antibody anti-GAPDH antibody at room temperature (RT) for 2 h. After incubation with primary antibodies, membranes were washed with TBST, then incubated with the secondary antibody at RT for 1 h. Blots were visualized using the instrument Image Quant LAS-4000. The chemiluminescent signals derived from ECL Western blotting reagents were captured. The bands integrated intensity from 16-bit blot images was used for quantitation with the software (1D component of ImageQuant TL). The quantification raw data of the two duplicated gels was obtained from ImageQuant TL. Collagen I and α-SMA proteins expression level was normalized to GAPDH for each gel. The average normalization data of the two duplicated gels was calculated and applied to calculate IC50 using an equation for a sigmoidal dose response (variable slope) of GraphPad™ Prism software. The equation is Y=Bottom+(Top-Bottom)/(1+10^((Log IC50−X)*Hillslope). Note: X is the logarithm of compound concentration, Y is the average normalization data

[3] = ATP 70 μM, 40 min at room temperature, read-out: TNIK (IC50)

MAP4K4 (h), sequence (O95819 whole entry): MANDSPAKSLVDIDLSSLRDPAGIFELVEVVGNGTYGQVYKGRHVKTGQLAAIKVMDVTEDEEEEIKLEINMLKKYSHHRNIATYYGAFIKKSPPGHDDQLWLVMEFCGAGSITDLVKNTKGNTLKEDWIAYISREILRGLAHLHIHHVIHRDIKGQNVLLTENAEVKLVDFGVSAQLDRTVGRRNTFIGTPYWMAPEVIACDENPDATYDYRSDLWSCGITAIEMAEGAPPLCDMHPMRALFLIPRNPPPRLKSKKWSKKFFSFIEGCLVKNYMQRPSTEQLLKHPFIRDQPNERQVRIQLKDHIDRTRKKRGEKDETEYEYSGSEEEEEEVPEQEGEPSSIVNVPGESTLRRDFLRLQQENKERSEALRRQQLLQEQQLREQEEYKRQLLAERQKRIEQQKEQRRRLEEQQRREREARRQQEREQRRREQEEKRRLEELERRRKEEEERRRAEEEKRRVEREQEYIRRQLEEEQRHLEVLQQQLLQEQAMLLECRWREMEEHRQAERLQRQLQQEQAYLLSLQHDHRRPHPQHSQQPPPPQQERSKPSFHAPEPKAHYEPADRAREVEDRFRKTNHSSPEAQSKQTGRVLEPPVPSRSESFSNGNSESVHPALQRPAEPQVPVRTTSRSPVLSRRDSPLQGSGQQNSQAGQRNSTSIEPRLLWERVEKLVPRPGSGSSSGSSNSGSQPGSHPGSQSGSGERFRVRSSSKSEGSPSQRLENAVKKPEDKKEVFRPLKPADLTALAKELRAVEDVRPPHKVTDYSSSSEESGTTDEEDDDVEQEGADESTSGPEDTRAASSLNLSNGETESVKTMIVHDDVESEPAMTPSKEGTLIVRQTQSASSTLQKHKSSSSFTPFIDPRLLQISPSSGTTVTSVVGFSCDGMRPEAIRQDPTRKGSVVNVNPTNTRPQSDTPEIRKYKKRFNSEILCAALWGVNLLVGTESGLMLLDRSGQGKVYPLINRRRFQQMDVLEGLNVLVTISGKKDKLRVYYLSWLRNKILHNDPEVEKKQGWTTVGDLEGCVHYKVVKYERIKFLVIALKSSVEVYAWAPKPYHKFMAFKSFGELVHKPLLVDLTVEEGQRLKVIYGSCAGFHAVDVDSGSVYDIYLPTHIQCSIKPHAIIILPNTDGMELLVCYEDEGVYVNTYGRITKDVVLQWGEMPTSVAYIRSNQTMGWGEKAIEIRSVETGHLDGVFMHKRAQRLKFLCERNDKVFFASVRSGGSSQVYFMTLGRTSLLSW
TNIK(h), sequence (Q9UKE5 whole entry): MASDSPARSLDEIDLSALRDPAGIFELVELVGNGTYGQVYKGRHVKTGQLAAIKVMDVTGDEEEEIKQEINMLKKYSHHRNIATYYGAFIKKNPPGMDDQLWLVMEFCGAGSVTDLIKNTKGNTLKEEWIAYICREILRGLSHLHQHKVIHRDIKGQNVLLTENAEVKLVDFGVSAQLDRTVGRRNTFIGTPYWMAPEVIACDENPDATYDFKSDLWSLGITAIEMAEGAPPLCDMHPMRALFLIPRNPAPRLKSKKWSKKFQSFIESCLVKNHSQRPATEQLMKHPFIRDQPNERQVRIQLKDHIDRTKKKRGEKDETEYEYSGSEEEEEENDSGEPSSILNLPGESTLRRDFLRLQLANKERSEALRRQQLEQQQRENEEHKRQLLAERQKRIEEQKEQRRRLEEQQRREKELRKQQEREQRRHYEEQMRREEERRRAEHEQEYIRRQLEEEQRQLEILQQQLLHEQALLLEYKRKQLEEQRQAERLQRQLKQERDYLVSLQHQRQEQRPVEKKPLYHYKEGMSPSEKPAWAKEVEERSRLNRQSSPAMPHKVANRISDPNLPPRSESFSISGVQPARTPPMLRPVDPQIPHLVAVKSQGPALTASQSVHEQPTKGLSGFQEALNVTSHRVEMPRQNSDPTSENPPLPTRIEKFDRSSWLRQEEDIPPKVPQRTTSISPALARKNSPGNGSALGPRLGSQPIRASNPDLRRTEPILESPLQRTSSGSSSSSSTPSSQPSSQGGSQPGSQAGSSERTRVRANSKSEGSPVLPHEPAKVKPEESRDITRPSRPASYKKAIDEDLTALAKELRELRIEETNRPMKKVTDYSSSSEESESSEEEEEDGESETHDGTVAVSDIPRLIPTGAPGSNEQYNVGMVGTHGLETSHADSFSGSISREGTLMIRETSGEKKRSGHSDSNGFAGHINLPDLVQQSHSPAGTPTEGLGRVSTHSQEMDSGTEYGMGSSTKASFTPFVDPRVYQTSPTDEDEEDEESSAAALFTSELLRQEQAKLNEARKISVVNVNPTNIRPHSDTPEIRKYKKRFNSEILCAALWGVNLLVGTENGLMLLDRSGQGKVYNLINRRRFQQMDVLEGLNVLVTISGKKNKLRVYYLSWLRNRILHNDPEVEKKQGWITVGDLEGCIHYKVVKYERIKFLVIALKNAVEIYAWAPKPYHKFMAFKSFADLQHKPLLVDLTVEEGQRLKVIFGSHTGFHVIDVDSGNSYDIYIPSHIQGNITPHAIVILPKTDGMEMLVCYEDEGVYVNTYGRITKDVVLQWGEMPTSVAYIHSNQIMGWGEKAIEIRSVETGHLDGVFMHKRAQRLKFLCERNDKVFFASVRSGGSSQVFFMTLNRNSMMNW

Q: For `CC(C)n1cnc(-c2ccc(F)cc2)c1-c1nc(C(=O)Nc2ccc(CCO)cc2)c[nH]1` [Compound 111, 5′-(4-fluorophenyl)-N-(4-(2-hydroxyethyl)phenyl)-3′-isopropyl-1H,3′H-[2,4′-biimidazole]-4-carboxamide], which “Human Liver Microsome (μM/min/mg)” value [1] is on record?
A: ++ (10-100 μM/min/mg as ++)

Q: And the IC50 (TNIK(h); [3])?
A: 12 to 120 nM

Q: What about the IC50 (MAP4K4 (h)) of the same molecule?
A: > 120 nM

Q: What about the IC50 [2] of the same molecule?
A: 0.1 to 1 nM

Q: For `CC(C)n1cnc(-c2ccc(F)cc2)c1-c1nc(C(=O)Nc2ccc(N3CCN(CCO)CC3)cc2)c[nH]1` [Compound 117, 5′-(4-fluorophenyl)-N-(4-(4-(2-hydroxyethyl)piperazin-1-yl)phenyl)-3′-isopropyl-1H,3′H-[2,4′-biimidazole]-4-carboxamide], which “Human Liver Microsome (μM/min/mg)” value [1] is on record?
A: ++ (10-100 μM/min/mg as ++)

Q: What about the IC50 (TNIK(h); [3]) of the same molecule?
A: 12 to 120 nM

Q: What about the IC50 (MAP4K4 (h)) of the same molecule?
A: 12 to 120 nM

Q: And the IC50 [2]?
A: 0.1 to 1 nM

Q: Which results are given for `CC(C)n1cnc(-c2ccc(F)cc2)c1-c1nc(C(=O)Nc2ccc(N(CCO)CCO)cc2)c[nH]1` [Compound 116, N-(4-(bis(2-hydroxyethyl)amino)phenyl)-5′-(4-fluorophenyl)-3′-isopropyl-1H,3′H-[2,4′-biimidazole]-4-carboxamide]?
A: Human Liver Microsome (μM/min/mg) [1]: +++ (1-10 μM/min/mg as +++); IC50 (TNIK(h); [3]): 12 to 120 nM; IC50 (MAP4K4 (h)): 12 to 120 nM; IC50 [2]: 0.1 to 1 nM

Q: What does the source list for `CC(C)n1cnc(-c2ccc(F)cc2)c1-c1cccc(C(=O)Nc2ccc(CCC(=O)O)cc2)n1` [Compound 131]?
A: Human Liver Microsome (μM/min/mg) [1]: +++ (1-10 μM/min/mg as +++); IC50 (TNIK(h); [3]): 1 to 12 nM; IC50 (MAP4K4 (h)): 12 to 120 nM; IC50 [2]: 0.1 to 1 nM

Q: With `CC(C)n1cnc(-c2ccc(F)c(F)c2)c1-c1nc(C(=O)Nc2ccc(N3CCN(CCO)CC3)cc2)c[nH]1` [Compound 146, 5′-(3,4-difluorophenyl)-N-(4-(4-(2-hydroxyethyl)piperazin-1-yl)phenyl)-3′-isopropyl-1H,3′H-[2,4′-biimidazole]-4-carboxamide] as the molecule, how does the “Human Liver Microsome (μM/min/mg)” value [1] read?
A: ++ (10-100 μM/min/mg as ++)

Q: And the IC50 (TNIK(h); [3])?
A: 12 to 120 nM

Q: What about the IC50 (MAP4K4 (h)) of the same molecule?
A: > 120 nM

Q: And the IC50 [2]?
A: 0.1 to 1 nM

Q: With `CN1CCN(c2ccc(NC(=O)c3c[nH]c(-c4c(-c5ccc(F)cc5)ncn4C(F)F)n3)cc2)CC1` [Compound 130, 3′-(difluoromethyl)-5′-(4-fluorophenyl)-N-(4-(4-methylpiperazin-1-yl)phenyl)-1H,3′H-[2,4′-biimidazole]-4-carboxamide] as the molecule, how does the “Human Liver Microsome (μM/min/mg)” value [1] read?
A: ++ (10-100 μM/min/mg as ++)

Q: And the IC50 (TNIK(h); [3])?
A: 12 to 120 nM

Q: What about the IC50 (MAP4K4 (h)) of the same molecule?
A: > 120 nM

Q: And the IC50 [2]?
A: 0.1 to 1 nM

Q: Which “Human Liver Microsome (μM/min/mg)” value [1] does the source give for `CC(C)n1cnc(-c2ccc(F)c(F)c2)c1-c1nc(C(=O)Nc2ccc(N3CCN(C)CC3)cc2)c[nH]1` [Compound 156, 5′-(3,4-difluorophenyl)-3′-isopropyl-N-(4-(4-methylpiperazin-1-yl)phenyl)-1H,3′H-[2,4′-biimidazole]-4-carboxamide] here?
A: ++ (10-100 μM/min/mg as ++)

Q: What about the IC50 (TNIK(h)) of the same molecule?
A: 12 to 120 nM

Q: And the IC50 (MAP4K4 (h))?
A: > 120 nM

Q: And the IC50 [2]?
A: < 0.1 nM

Q: What does the source list for `CN1CCN(c2ccc(NC(=O)c3c[nH]c(-c4c(-c5ccc(F)cc5)ncn4CC(F)(F)F)n3)cc2)CC1` [Compound 120, 5′-(4-fluorophenyl)-N-(4-(4-methylpiperazin-1-yl)phenyl)-3′-(2,2,2-trifluoroethyl)-1H,3′H-[2,4′-biimidazole]-4-carboxamide]?
A: Human Liver Microsome (μM/min/mg) [1]: ++ (10-100 μM/min/mg as ++); IC50 (TNIK(h); [3]): 12 to 120 nM; IC50 (MAP4K4 (h)): > 120 nM; IC50 [2]: < 0.1 nM

Q: For `CN1CCN(c2ccc(NC(=O)c3c[nH]c(-c4c(-c5ccc(F)cc5)ncn4C4CCC(O)CC4)n3)cc2)CC1` (stereo not shown) [Compound 172], which “Human Liver Microsome (μM/min/mg)” value [1] is on record?
A: +++ (1-10 μM/min/mg as +++)

Q: What about the IC50 [2] of the same molecule?
A: < 0.1 nM

Q: Which IC50 (TNIK(h); [3]) does the source give for `CN1[C@@H]2CC[C@H]1CN(c1ccc(NC(=O)c3c[nH]c(-c4c(-c5ccc(F)cc5)ncn4CC(F)(F)F)n3)cc1)C2` [Compound 193, 5′-(4-fluorophenyl)-N-(4-((1R,5S)-8-methyl-3,8-diazabicyclo[3.2.1]octan-3-yl)phenyl)-3′-(2,2,2-trifluoroethyl)-1H,3′H-[2,4′-biimidazole]-4-carboxamide] here?
A: 12 to 120 nM

Q: What about the IC50 (MAP4K4 (h)) of the same molecule?
A: 12 to 120 nM

Q: What about the IC50 [2] of the same molecule?
A: < 0.1 nM
